Source: US20250320213A1, “Nitrogen-Containing Heterocyclic Compounds” (Pfizer Inc., priority 2024, published 2025)
Like-named read-outs stand apart in the source and are kept apart here.

Columns and labels:
[1] = target: T1, STAT6 (Homo sapiens, UniProt P42226); test: STAT6 Reporter Luciferase Assay (IL-13 stimulated HaCaT keratinocyte NanoLuc reporter cells); type: cell-based; conditions: read-out: Reporter EC50
T1 construct: stably transfected HaCaT keratinocyte cell line, which expresses NanoLuc luciferase reporter gene under the transcriptional control of the STAT6 responsive promoter; endogenous in cells; host or cells: HaCaT keratinocyte reporter cell line (stably transfected with a NanoLuc reporter)
T1 sequence (P42226 1-847): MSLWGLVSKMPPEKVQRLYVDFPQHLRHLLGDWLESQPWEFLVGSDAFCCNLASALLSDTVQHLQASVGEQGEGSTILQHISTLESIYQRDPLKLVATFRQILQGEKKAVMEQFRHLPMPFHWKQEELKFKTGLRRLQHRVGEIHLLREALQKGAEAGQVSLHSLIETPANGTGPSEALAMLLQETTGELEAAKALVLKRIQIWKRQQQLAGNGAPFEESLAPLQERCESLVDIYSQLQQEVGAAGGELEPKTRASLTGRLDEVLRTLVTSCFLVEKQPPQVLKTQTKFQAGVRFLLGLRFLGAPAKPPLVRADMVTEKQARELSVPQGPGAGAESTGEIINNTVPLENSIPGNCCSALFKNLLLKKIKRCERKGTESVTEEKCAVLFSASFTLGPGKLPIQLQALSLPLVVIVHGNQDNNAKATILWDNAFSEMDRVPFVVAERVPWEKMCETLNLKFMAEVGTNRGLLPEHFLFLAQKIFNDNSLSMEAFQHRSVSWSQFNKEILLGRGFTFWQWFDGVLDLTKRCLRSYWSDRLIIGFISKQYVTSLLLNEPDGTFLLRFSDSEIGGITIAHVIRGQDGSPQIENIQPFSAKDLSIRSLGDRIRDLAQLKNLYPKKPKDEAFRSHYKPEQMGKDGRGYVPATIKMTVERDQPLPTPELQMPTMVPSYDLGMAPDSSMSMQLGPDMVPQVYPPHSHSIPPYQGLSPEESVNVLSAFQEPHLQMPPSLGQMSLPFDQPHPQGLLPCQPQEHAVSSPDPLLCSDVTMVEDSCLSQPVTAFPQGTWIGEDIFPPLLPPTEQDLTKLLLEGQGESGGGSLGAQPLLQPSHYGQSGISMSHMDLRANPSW
In short: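 Compounds were tested as 11-point, 4-fold series in duplicate, applied for 2 h at 37 °C in low-serum (2% FBS) DMEM. The cells were a stable HaCaT line with NanoLuc under a STAT6-responsive IL-13Ra2 promoter. After 4 h with 0.12 nM IL-13, Nano-Glo luminescence was measured.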

[2] = test system: CCL17 secretion in peripheral human whole blood; test: Human Whole Blood (HWB) CCL17 TR-FRET Assay (IL-13 stimulated CCL17 secretion); type: cell-based; conditions: Homo sapiens, 48 h
In short: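 TR-FRET sandwich immunoassay (665/615 nm ratio) read CCL17 in serum from heparinized whole blood after 16 h RT detection. Blood was exposed to compound for 2 h at 37 °C, then to 10 ng/mL IL-13 (final) for 48 h. IC50 from 11-point, 3-fold titrations in duplicate.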

[3] = STAT6 NanoLuc luciferase reporter, IL-13 stimulated HaCaT keratinocyte cells
[4] = inhibition of CCL17 secretion in human whole blood, 10 ng/mL IL13, 48 hours
[5] = IL-13 stimulated HaCaT STAT6 NanoLuc reporter cells
[6] = human whole blood, 10 ng/mL IL13, 48 hours

`CC(C)n1nc(C(=O)NCc2ccc(NC(=O)NCC3CCOC3)cc2)c2c1CCN(c1ccc(C(=O)N(C)C)cn1)C2` (racemic) [Example 155, rac-(R)-5-(5-(dimethylcarbamoyl)pyridin-2-yl)-1-isopropyl-N-(4-(3-((tetrahydrofuran-3-yl)methyl)ureido)benzyl)-4,5,6,7-tetrahydro-1H-pyrazolo[4,3-c]pyridine-3-carboxamide] gave an EC50 [1, 3] of 12 nM and an IC50 [2, 4] of 141 nM.

For `CC(C)n1nc(C(=O)NCc2ccc(NC(=O)N3CC[C@@](C)(N)C3)cc2)c2c1[C@@H](C)CN(c1ccc(C(=O)N(C)C)cc1)C2` [Example 572, (S)-N-(4-((R)-3-amino-3-methylpyrrolidine-1-carboxamido)benzyl)-5-(4-(dimethylcarbamoyl)phenyl)-1-isopropyl-7-methyl-4,5,6,7-tetrahydro-1H-pyrazolo[4,3-c]pyridine-3-carboxamide], the EC50 [1, 5] was 3 nM and the IC50 [2, 6] was 20 nM.

`CC(C)n1nc(C(=O)NCc2ccc(NC(=O)N(C)C)cc2)c2c1CCN(c1ccc(-n3ccccc3=O)cn1)C2` [Example 108, N-(4-(3,3-dimethylureido)benzyl)-1-isopropyl-5-(2-oxo-2H-[1,3′-bipyridin]-6′-yl)-4,5,6,7-tetrahydro-1H-pyrazolo[4,3-c]pyridine-3-carboxamide] showed an EC50 [1, 3] of 30 nM and an IC50 [2, 4] of 536 nM.

With `CCC1CN(c2ccc(C(=O)N(C)C)cn2)Cc2c(C(=O)NCc3ccc(NC(=O)N(C)C)cc3)nc(C)n21` (racemic) [Example 130, rac-(R)-7-(5-(dimethylcarbamoyl)pyridin-2-yl)-N-(4-(3,3-dimethylureido)benzyl)-5-ethyl-3-methyl-5,6,7,8-tetrahydroimidazo[1,5-a]pyrazine-1-carboxamide] the EC50 [1, 3] was 23 nM and the IC50 [2, 4] was 77 nM.

`CC(C)n1nc(C(=O)NCc2ccc(NC(=O)N3CCC(C)(C#N)CC3)cc2)c2c1CCN(c1ccc(C(=O)N(C)C)cn1)C2` [Example 172, N-(4-(4-cyano-4-methylpiperidine-1-carboxamido)benzyl)-5-(5-(dimethylcarbamoyl)pyridin-2-yl)-1-isopropyl-4,5,6,7-tetrahydro-1H-pyrazolo[4,3-c]pyridine-3-carboxamide] was tested, and the EC50 [1, 3] was 11 nM and the IC50 [2, 4] was 150 nM.

`CC(C)n1nc(C(=O)NCc2ccc(NC(=O)N(C)CC3COCCO3)cc2)c2c1CCN(c1ccc(C(=O)N(C)C)cn1)C2` (racemic) [Example 176, rac-(R)-N-(4-(3-((1,4-dioxan-2-yl)methyl)-3-methylureido)benzyl)-5-(5-(dimethylcarbamoyl)pyridin-2-yl)-1-isopropyl-4,5,6,7-tetrahydro-1H-pyrazolo[4,3-c]pyridine-3-carboxamide] was tested, and the EC50 [1, 3] was 12 nM and the IC50 [2, 4] was 51 nM.

`COCCNC(=O)Nc1ccc(CNC(=O)c2nn(C(C)C)c3c2CN(c2ccc(C(=O)N(C)C)cn2)CC3)cc1` [Example 178, 5-(5-(dimethylcarbamoyl)pyridin-2-yl)-1-isopropyl-N-(4-(3-(2-methoxyethyl)ureido)benzyl)-4,5,6,7-tetrahydro-1H-pyrazolo[4,3-c]pyridine-3-carboxamide] gave an EC50 [1, 3] of 7 nM and an IC50 [2, 4] of 45 nM.

In the case of `COC[C@@H]1CN(C(=O)Nc2ccc(CNC(=O)c3nn(C(C)C)c4c3CN(c3ccc(C(=O)N(C)C)cc3)C[C@@H]4C)cc2)CCN1` [Example 578, (S)-5-(4-(dimethylcarbamoyl)phenyl)-1-isopropyl-N-(4-((S)-3-(methoxymethyl)piperazine-1-carboxamido)benzyl)-7-methyl-4,5,6,7-tetrahydro-1H-pyrazolo[4,3-c]pyridine-3-carboxamide], the EC50 [1, 5] is reported as 0.5 nM and the IC50 [2, 6] is reported as 5 nM.

Compound `CCn1nc(C(=O)NCc2ccc(NC(=O)N(C)C)cc2)c2c1[C@@H](C)[C@H](C)N(c1ncc(C(=O)N(C)C)cn1)C2` (single isomer, unassigned) [Example 447] has an EC50 [1, 5] of 0.4 nM and an IC50 ([2]; human whole blood, IL-13 stimulated) greater than 413 nM.
